{"source": "patent US11160796B2", "about": "“Anti-androgens for the treatment of non-metastatic castration-resistant prostate cancer” (priority 2017, dated 2021)", "key": {"androgen receptor (AR)": {"molecular_target": "androgen receptor (AR) (Homo sapiens, UniProt P10275)", "sequence (P10275 whole entry)": "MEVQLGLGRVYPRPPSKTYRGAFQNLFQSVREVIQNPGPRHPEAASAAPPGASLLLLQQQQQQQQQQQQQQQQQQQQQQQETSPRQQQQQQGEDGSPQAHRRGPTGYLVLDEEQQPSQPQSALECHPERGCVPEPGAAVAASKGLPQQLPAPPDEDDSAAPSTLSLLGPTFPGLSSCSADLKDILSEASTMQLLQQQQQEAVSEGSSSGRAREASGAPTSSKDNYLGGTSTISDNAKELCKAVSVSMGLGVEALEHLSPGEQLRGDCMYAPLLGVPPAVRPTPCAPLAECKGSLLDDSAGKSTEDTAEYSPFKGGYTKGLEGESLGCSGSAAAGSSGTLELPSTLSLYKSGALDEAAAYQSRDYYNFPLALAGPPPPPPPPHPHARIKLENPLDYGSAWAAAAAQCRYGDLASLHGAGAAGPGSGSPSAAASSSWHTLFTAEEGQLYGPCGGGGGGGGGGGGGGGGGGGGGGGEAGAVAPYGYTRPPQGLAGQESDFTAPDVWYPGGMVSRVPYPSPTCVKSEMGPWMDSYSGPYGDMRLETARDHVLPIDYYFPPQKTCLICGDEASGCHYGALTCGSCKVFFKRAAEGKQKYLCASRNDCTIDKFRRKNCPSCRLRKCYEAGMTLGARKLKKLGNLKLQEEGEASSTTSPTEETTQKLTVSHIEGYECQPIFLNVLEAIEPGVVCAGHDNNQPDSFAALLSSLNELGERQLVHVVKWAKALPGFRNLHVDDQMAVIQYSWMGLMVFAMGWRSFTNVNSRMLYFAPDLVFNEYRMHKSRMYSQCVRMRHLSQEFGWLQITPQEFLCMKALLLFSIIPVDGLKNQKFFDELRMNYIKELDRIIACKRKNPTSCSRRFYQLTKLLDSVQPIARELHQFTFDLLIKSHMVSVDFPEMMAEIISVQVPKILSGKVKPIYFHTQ", "conditions": "cited from earlier work"}, "[1]": {"conditions": "human, in vivo, po, 240 mg"}, "[2]": {"test": "Preclinical pharmacokinetic profile", "assay_type": "in vivo", "conditions": "relative to apalutamide"}, "[3]": {"test_system": "organic cation transporter 2 (OCT2), organic anion transporter 3 (OAT3) and multidrug and toxin extrusions (MATEs)", "test": "In vitro transporter inhibition: OCT2, OAT3, MATEs", "assay_type": "in vitro ADME"}, "[4]": {"conditions": "human, in vivo"}, "plasma proteins": {"test_system": "plasma proteins", "test": "Plasma protein binding", "conditions": "no concentration dependency"}, "human CYP2B6 and CYP3A4": {"test_system": "human CYP2B6 and CYP3A4", "test": "CYP induction in vitro (hepatocytes)"}, "CYP1A2 and CYP2D6": {"test_system": "CYP1A2 and CYP2D6", "test": "In vitro effect on CYP1A2 and CYP2D6", "conditions": "therapeutically relevant concentrations"}, "[5]": {"molecular_target": "T1, organic anion transporter 1 (OAT1) (Homo sapiens, UniProt Q4U2R8)", "T1 sequence (Q4U2R8 1-563)": "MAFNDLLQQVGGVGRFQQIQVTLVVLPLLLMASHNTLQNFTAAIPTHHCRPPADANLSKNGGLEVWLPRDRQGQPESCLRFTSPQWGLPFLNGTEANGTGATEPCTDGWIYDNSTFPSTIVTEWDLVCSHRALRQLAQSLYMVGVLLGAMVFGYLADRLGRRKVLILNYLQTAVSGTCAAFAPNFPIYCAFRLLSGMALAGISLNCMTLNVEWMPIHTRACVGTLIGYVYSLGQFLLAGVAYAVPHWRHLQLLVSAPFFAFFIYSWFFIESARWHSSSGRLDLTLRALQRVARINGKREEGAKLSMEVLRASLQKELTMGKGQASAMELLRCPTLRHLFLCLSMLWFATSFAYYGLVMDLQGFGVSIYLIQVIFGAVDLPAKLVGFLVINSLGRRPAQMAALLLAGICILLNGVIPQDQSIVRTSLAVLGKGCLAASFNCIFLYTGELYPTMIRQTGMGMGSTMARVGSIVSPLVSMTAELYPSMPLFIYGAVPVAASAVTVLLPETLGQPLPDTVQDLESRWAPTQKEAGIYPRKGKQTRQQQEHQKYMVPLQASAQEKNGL", "test": "In vitro transporter inhibition: OAT1"}, "CYP2B6 and CYP2C8": {"test_system": "CYP2B6 and CYP2C8", "test": "In vitro CYP inhibition: CYP2B6 and CYP2C8"}, "P-gp": {"molecular_target": "P-gp (Homo sapiens, UniProt P08183)", "sequence (P08183 whole entry)": "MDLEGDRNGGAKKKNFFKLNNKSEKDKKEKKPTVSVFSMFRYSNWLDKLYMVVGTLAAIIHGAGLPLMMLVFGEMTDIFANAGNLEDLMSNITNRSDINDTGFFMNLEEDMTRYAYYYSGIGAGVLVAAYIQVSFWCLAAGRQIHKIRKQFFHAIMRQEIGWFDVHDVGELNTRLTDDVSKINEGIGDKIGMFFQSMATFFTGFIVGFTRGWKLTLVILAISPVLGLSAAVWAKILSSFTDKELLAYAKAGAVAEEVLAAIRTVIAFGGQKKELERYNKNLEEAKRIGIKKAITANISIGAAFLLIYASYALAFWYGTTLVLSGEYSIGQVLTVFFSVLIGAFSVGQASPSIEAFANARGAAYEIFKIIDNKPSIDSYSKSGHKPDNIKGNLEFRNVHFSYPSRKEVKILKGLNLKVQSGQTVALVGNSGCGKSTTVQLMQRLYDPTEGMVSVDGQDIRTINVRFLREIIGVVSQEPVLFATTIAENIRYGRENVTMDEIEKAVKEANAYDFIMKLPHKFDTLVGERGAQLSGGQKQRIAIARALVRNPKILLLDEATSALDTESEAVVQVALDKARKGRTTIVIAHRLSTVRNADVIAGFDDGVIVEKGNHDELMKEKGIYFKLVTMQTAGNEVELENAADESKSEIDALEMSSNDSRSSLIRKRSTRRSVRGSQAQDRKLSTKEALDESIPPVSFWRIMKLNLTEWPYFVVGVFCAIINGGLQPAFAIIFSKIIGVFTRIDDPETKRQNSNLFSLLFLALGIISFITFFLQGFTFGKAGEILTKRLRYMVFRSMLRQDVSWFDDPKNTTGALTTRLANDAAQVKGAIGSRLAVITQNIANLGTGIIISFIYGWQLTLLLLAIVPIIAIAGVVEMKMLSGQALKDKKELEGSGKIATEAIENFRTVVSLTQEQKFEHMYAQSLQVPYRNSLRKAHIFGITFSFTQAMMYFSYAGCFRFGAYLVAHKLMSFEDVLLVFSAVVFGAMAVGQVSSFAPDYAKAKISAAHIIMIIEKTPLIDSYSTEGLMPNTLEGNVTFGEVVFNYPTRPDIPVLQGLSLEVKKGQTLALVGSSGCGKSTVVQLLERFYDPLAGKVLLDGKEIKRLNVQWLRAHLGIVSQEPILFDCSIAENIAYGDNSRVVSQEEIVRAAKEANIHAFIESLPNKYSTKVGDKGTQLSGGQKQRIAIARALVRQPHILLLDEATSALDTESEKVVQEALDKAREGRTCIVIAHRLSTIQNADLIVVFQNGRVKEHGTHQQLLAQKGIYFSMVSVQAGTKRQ", "test": "In vitro transporter substrate assessment: P-gp"}, "[6]": {"test_system": "CYP2C9, CYP2C19, and CYP3A4", "test": "In vitro CYP inhibition: CYP2C9, CYP2C19, CYP3A4"}, "[7]": {"test_system": "BCRP, OATP1B1, and OATP1B3", "test": "In vitro transporter substrate assessment: BCRP, OATP1B1, OATP1B3"}, "[8]": {"test": "Single oral administration of 14C-labeled apalutamide 240 mg (metabolite profile, excretion)"}, "[9]": {"conditions": "listed as N-desmethyl metabolite"}}, "note": "Like-named read-outs stand apart in the source and are kept apart here.", "data": [{"molecule": "CC(O)c1cc(C(=O)N[C@@H](C)Cn2ccc(-c3ccc(C#N)c(Cl)c3)n2)[nH]n1", "note": "(some centres unmarked) [Darolutamide]", "values": [{"measurement": "binding affinity to AR", "setting": "androgen receptor (AR)", "result": "high affinity"}]}, {"molecule": "N#Cc1ncc(N2C(=O)C3(CCC3)N(c3ccc(C(=O)O)c(F)c3)C2=S)cc1C(F)(F)F", "note": "[inactive carboxylic acid metabolite]", "values": [{"measurement": "share of the total 14C-AUC in plasma", "setting": "[1]", "result": 3, "unit": "%"}]}, {"molecule": "N-desmethyl apalutamide", "values": [{"measurement": "elimination half-life", "setting": "[2]", "result": "longer elimination half-life than apalutamide"}, {"measurement": "inhibition of OCT2, OAT3 and MATEs", "setting": "[3]", "result": "inhibit"}, {"measurement": "inhibition of OCT2, OAT3 and MATEs", "setting": "[3]; [9]", "result": "cannot be excluded"}, {"measurement": "AUC at steady-state, mean", "setting": "[4]", "result": 124, "unit": "µg·h/mL"}, {"measurement": "Cmax at steady-state, mean", "setting": "[4]", "result": 5.9, "unit": "µg/mL"}, {"measurement": "differences in pharmacokinetics in specific populations", "setting": "[4]", "result": "No clinically significant differences"}, {"measurement": "AUC at steady-state, mean", "setting": "[4]; 240 mg", "result": 124, "unit": "µg·h/mL"}, {"measurement": "Cmax at steady-state, mean", "setting": "[4]; 240 mg", "result": 5.9, "unit": "µg/mL"}, {"measurement": "bound to plasma proteins", "setting": "plasma proteins", "result": 95, "unit": "%"}, {"measurement": "induction of human CYP2B6 and CYP3A4 in hepatocytes", "setting": "human CYP2B6 and CYP3A4; concentrations up to 30 μM", "result": "inducers"}, {"measurement": "CYP3A4 and CYP2B6 induction", "setting": "human CYP2B6 and CYP3A4; in vitro studies", "result": "moderate to strong CYP3A4 and CYP2B6 inducers"}, {"measurement": "effect on CYP1A2 and CYP2D6", "setting": "CYP1A2 and CYP2D6", "result": "do not affect"}, {"measurement": "inhibition of OAT1", "setting": "[5]", "result": "do not inhibit"}, {"measurement": "inhibition of OAT1", "setting": "[5]; [9]", "result": "No in vitro inhibition"}, {"measurement": "inhibition of CYP2B6 and CYP2C8", "setting": "CYP2B6 and CYP2C8", "result": "moderate inhibitors"}, {"measurement": "substrate for P-gp", "setting": "P-gp", "result": "substrates for P-gp"}, {"measurement": "inhibition of CYP2C9, CYP2C19, and CYP3A4", "setting": "[6]", "result": "weak inhibitors"}, {"measurement": "substrate for BCRP, OATP1B1, and OATP1B3", "setting": "[7]", "result": "not BCRP, OATP1B1, and OATP1B3"}, {"measurement": "share of the total 14C-AUC in plasma", "setting": "[8]; single oral 240 mg", "result": 44, "unit": "%"}, {"measurement": "% of dose in feces as this compound", "setting": "[8]; up to 70 days", "result": 2, "unit": "%"}, {"measurement": "% of dose in urine as this compound", "setting": "[8]; up to 70 days", "result": 2.7, "unit": "%"}]}]}
